Legend:
Type in all cases: cell-based, mouse
[1] = system: primary PGC-1α/β KO myotubes; experiment: NMN with or without HIF stabilizing compounds in PGC-1α/β KO myotubes, qPCR of mitochondrially-encoded ETC genes; details: HIF stabilizing compound added to NMN-treated cells; 1 mM DMOG or 10 μM DFO, 12 hours
Protocol: As a functional test of whether NMN reverses genome asynchrony by depleting cells of HIF-1α, primary PGC-1α/β KO myotubes were incubated with NMN in the presence and absence of the HIF stabilizing compounds DMOG and DFO. […] Primary myoblasts cells were isolated from WT, SIRT1 KO (Price et al., 2012) and PGC-1α/β KO (Zechner et al., 2010) mice as previously described (Price et al., 2012). WT and PGC-1α/β KO primary myoblasts were plated and allowed to differentiate into myotubes by replacing the media with low glucose DMEM supplemented with 2% horse serum (Sigma-Aldrich) for 4 days. After the differentiation the cells were infected with empty vector or flag-SIRT1 adenovirus as described before ([…] al., 2007). Media was replaced with fresh DMEM supplemented with 2% horse serum (Sigma-Aldrich) for an additional 48 hr and, after that the cells were harvested for the different assays as described. […] Quantitative RT-PCR reactions were performed using 1 μM of primers and LightCycler® 480 SYBR Green Master (Roche) on an LightCycler® 480 detection system (Roche). Calculations were performed by a comparative method (2-ΔCT) using 18S as an internal control. For mtDNA analysis, total DNA was extracted with DNeasy blood and tissue kit (Qiagen). mtDNA was amplified using primers specific for the mitochondrial cytochrome c oxidase subunit 2 (COX2) gene and normalized to genomic DNA by amplification of the ribosomal protein s18 (rps18) nuclear gene. Primers were designed using the IDT software (IDT) and the primer sequences can be found in Table 1.

[2] = system: PGC-1α/β knockout myotubes; experiment: HIF stabilizing compounds in PGC-1α/β knockout myotubes with or without SIRT1 overexpression; details: SIRT1 adenovirus; 1 mM DMOG or 10 μM DFO, 12 hours
Protocol: Next whether the ability of SIRT1 to regulate mitochondrial function independently of PGC-1α/β is mediated by HIF-1α was tested. […] Furthermore, cells expressing a mutant allele of HIF-1α that is constitutively stabilized due to the replacement of the two hydroxylated prolines with alanines (DPA) (FIG. 7A), caused genome asynchrony similar to hypoxia and treatment with DMOG (FIG. 7B).
Primary myoblasts cells were isolated from WT, SIRT1 KO (Price et al., 2012) and PGC-1α/β KO (Zechner et al., 2010) mice as previously described (Price et al., 2012). WT and PGC-1α/β KO primary myoblasts were plated and allowed to differentiate into myotubes by replacing the media with low glucose DMEM supplemented with 2% horse serum (Sigma-Aldrich) for 4 days. After the differentiation the cells were infected with empty vector or flag-SIRT1 adenovirus as described before (Gerhart-Hines et al., 2007). Media was replaced with fresh DMEM supplemented with 2% horse serum (Sigma-Aldrich) for an additional 48 hr and, after that the cells were harvested for the different assays as described. To investigate the role of HIF-1α in genome asynchrony, PGC-1α/β KO primary myotubes were treated for 12 hours with 1 mM DMOG (Sigma) or 10 μM DFO (Sigma), 24 h after infection with empty vector of flag-SIRT1 adenovirus or after 12 h treatment with […] NMN (Sigma).
RNA from skeletal muscle tissue and C2C12 cells were extracted with RNeasy mini kit (Qiagen) according to the instructions and quantified using the NanoDrop 1000 spectrophotometer (Thermo Scientific). cDNA was synthesized with the iSCRIP cDNA synthesis kit (BioRad) using 600 ng of RNA. Quantitative RT-PCR reactions were performed using 1 μM of primers and LightCycler® 480 SYBR Green Master (Roche) on an LightCycler® 480 detection system (Roche). Calculations were performed by a comparative method (2-ΔCT) using 18S as an internal control. For mtDNA analysis, total DNA was extracted with DNeasy blood and tissue kit (Qiagen). mtDNA was amplified using primers specific for the mitochondrial cytochrome c oxidase subunit 2 (COX2) gene and normalized to genomic DNA by amplification of the ribosomal protein s18 (rps18) nuclear gene. […]
Protein extracts from tissue or C2C12 cells were obtained by lysis in ice-cold lysis buffer (150 mM NaCl, 10 mM Tris HCl (pH 7.4), 1 mM EDTA, 1 mM EGTA, 1% Triton X-100, 0.5% NP-40) supplemented with a cocktail of protease and phosphatase inhibitors (Roche). Protein content was determined by the Bradford protein assay (Biorad), and 50 μg proteins were run on SDS-PAGE under reducing conditions. […] The immunostaining was detected using horseradish peroxidase-conjugated anti-rabbit or anti-mouse immunoglobulin for 1 h at room temperature.

C2C12 cells = experiment: SIRT1 inhibition with EX-527 in C2C12 cells; details: 10 μM EX-527, 12 h
Protocol: Having shown that HIF-1α stabilization was sufficient to induce genome asynchrony, it was next tested whether it was necessary. […] Knockdown of HIF-1α in C2C12 cells treated with the SIRT1 inhibitor EX-527 prevented genome asynchrony and decline in mitochondrial function, as evidenced by the maintenance of mtDNA content (FIG. 7F), mitochondrial ETC gene expression (FIG. 7G), mitochondrial membrane potential ([…]) and ATP levels (FIG. 7I).
C2C12 cell line (ATCC) was cultured in low glucose Dulbecco's modified eagle medium (DMEM) (Invitrogen) supplemented with 10% FBS (Invitrogen) and a mix of antibiotic and antimycotic (Invitrogen). To inhibit SIRT1, cells were treated the vehicle (0.001% DMSO) or 10 μM EX-527 (Tocris) for 12 h. C2C12 myoblasts were infected with an empty or SIRT1 adenovirus as described before (Gerhart-Hines et al., 2007) and the media was replaced with fresh DMEM for additional 48 h, after that the cells were treated as described before. To test the effects of hypoxia and HIFα stabilization in genome asyncrony, C2C12 myoblasts were exposed to 1% oxygen for 16 h or treated with the vehicle (0.001% DMSO) or DMOG (Cayman) for the same period of time.

PGC-1α/β KO myotubes = experiment: EX-527 in PGC-1α/β KO myotubes reconstituted with WT or T177A/S538A PGC-1α, qPCR; details: EX-527 48 h
Protocol: RNA from skeletal muscle tissue and C2C12 cells were extracted with RNeasy mini kit (Qiagen) according to the instructions and quantified using the NanoDrop 1000 spectrophotometer (Thermo Scientific). cDNA was synthesized with the iSCRIP cDNA synthesis kit (BioRad) using 600 ng of RNA. Quantitative RT-PCR reactions were performed using 1 μM of primers and LightCycler® 480 SYBR Green Master (Roche) on an LightCycler® 480 detection system (Roche). Calculations were performed by a comparative method (2-ΔCT) using 18S as an internal control. For mtDNA analysis, total DNA was extracted with DNeasy blood and tissue kit (Qiagen). mtDNA was amplified using primers specific for the mitochondrial cytochrome c oxidase subunit 2 (COX2) gene and normalized to genomic DNA by amplification of the ribosomal protein s18 (rps18) nuclear gene. Primers were designed using the IDT software (IDT) and the primer sequences can be found in Table 1.
AMPK-DN blocked the decrease in nuclear-encoded genes observed 48 h after treatment with OHT, but not the decline in mitochondrial-encoded genes (FIG. 13G). In order to determine if this AMPK affect is through PGC-1α PGC-1α/β KO myotubes were reconstituted with either a WT PGC-1α or an AMPK insensitive version of PGC-1α (PGC-1α T177A/S538A) (FIG. 20F). […]

primary myoblasts = experiment: Lactate treatment of primary WT myoblasts, NAD+/NADH ratio and HIF-1α immunoblot; details: 10 mM lactate, 24 h
Text: FIGS. 21A-21N provide additional data related to the content of FIG. 14. FIG. 21A depicts HIF-1α target genes (PGK-1, Glut1, PDK1 and Vegfa) expression in gastrocnemius of WT and SIRT1 KO mice. Relative expression values were normalized to WT mice (n=5). FIG. 21B depicts hypoxia response element activity in primary myoblasts isolated from WT and SIRT1 KO mice and treated with or without DMOG. Relative luciferase activity was normalized to WT cells (n=6, *p<0.05 versus WT). FIG. 21C depicts a representative immunoblot of HIF-1a and Tubulin in PGC-1α/β KO myotubes treated with adenovirus overexpressing SIRT1 or empty vector as well as treatment with DMSO or with HIF stabilizing compound DMOG. FIG. 21D depicts NAD+/NADH ration measured in primary WT myoblasts treated with either 10 mM pyruvate, 10 mM lactate or vehicle for 24 h (n=4). […] FIG. 21J depicts mitochondrial DNA content analyzed by qPCR in control, HIF-1α DPA or HIF-2α DPA C2C12 cells treated with adenovirus overexpressing SIRT1 or empty vector. […] FIG. 21K depicts ARNT mRNA analyzed by qPCR in C2C12 cells infected with ARNT or nontargeting shRNA. […] FIG. 21L depicts mitochondrial DNA content analyzed by qPCR in C2C12 cells infected with ARNT or nontargeting shRNA. […] FIG. 21M depicts ND1, Cytb, COX1 and ATP6 mRNA analyzed by qPCR in C2C12 cells infected with ARNT or nontargeting shRNA. […] Values are expressed as mean±SEM. […]

With CC(=O)N(O)CCCCCNC(=O)CCC(=O)N(O)CCCCCNC(=O)CCC(=O)N(O)CCCCCN [DFO, desferrioxamine] the “effect on NMN-induced expression of mitochondrially-encoded ETC genes” value [1] was “completely abolished” and the “effect on induction of mitochondrial ETC genes by SIRT1 overexpression” value [2] was “completely blocked”.
NC(=O)C1CCCc2c1[nH]c1ccc(Cl)cc21 (stereo not shown) [EX-527] was tested, and the genome asynchrony (C2C12 cells) was “induced”, the “expression of nuclear- and mitochondrial-encoded genes” value (PGC-1α/β KO myotubes; in the presence of WT PGC-1α) was “decreased both nuclear- and mitochondrial-encoded genes” and the “expression of nuclear- and mitochondrial-encoded genes” value (PGC-1α/β KO myotubes; in the presence of the PGC-1α T177A/S538A mutant) was “only the mitochondrial-encoded genes decreased”.
For CC(O)C(=O)O (stereo not shown) [lactate], the “HIF-1α protein (immunoblot)” value (primary myoblasts) was “induces HIF-1α protein stabilization” and the “NAD+/NADH ratio” value (primary myoblasts) was “decreasing”.

Reference: patent US20200291100A1, “TREATMENT OF AGE-RELATED AND MITOCHONDRIAL DISEASES BY INHIBITION OF HIF-1 ALPHA FUNCTION” (President and Fellows of Harvard College, priority 2012, published 2020)
